Measured values from US20060019971A1, “Treatment of cardiovascular disease with inhibitors of p38 kinase” (priority 2003, published 2006).

Legend:
[1] = tested on: TNFα secretion from HPBMCs; assay: TNFα secretion from HPBMCs, ELISA; format: cell-based, human; settings: 1 μM SD, 6 hours
Description: (§1) 5×10^6 HPBMCs were plated in 6-well. After 1 hour medium was removed and cells were treated with vehicle or 1μM p38 inhibitor in RPMI 1640 medium. After 1 hour cells were stimulated with 10% FCS only or 10 μg/ml CRP plus 10% FCS. After 6 hours conditioned medium was collected and IL-1b and TNFa levels were determined by ELISA. […] 5×10^6 HPBMCs were plated in 6-well. After I hour medium was removed and cells were treated with vehicle or […] p38 inhibitor in RPMI 1640 medium. After 1 hour cells were stimulated with 10% FCS only or 10 μg/ml CRP plus 10% FCS. After 2 hours RNA was extracted from the cells and TNFa (c) and IL-1b (d) expression levels were determined by real-time PCR as described in the Experimental section. […]
Conditioned media from the treated cells were collected (6 to 20 hrs), and the level of secreted interleukin 6 (IL-6), interleukin 1 beta (IL-1 β), tumor necrosis factor alpha (TNFα), and interleukin 8 (IL-8) was determined by ELISA according to the manufacturer's instruction (Biosource International, Camarillo, Calif.). […]
TNFα and IL-β are initial inflammatory cytokines produced when monocytes are activated during infalmmation. […] HPBMCs were incubated with either 10% FCS or CRP plus 10% FCS for 6 hours and secreted cytokines TNFα and IL-1β were measured by ELISA. […]

[2] = tested on: IL-1β mRNA in HPBMCs; assay: IL-1β gene expression in HPBMCs, real-time PCR; format: cell-based, human; settings: 1 μM SD, 2 hrs
Description: as §1
RNA was extracted from the cells using Qiagen RNA extraction kit according to the manufacturer's instruction. The expression of pro-inflammatory genes IL-1β, IL-6, IL-8, TNFα, COX-2, ET-1, TF were assessed by real-time PCR. […]
Real-time RT-PCR was performed in a two-step manner. cDNA synthesis and real-time detection were carried out in a PTC-100™ Thermal Cycler (MJ Research Inc, Waltham, Mass.) and an ABI Prism™ 7700 Sequence Detection System (Applied Biosystems, Foster City, Calif.), respectively. […] Relative quantitation of gene expression was performed using the relative standard curve method. […]

C[C@@H]1CN(Cc2ccc(F)cc2)[C@@H](C)CN1C(=O)c1cc2c(C(=O)C(=O)N(C)C)c[nH]c2cc1Cl [Compound 162]
FCS induced TNFα secretion, sensitivity to p38 inhibition ([1]; 10% FCS): sensitive
inhibition of CRP-invoked TNFα secretion ([1]; CRP plus 10% FCS): strongly inhibited
inhibition of FCS induced expression of IL-1β gene [2]: attenuated
